In patent US20210371374A1, “METAL DI-AMINO ACID CHELATES OR METAL TRI-AMINO ACID CHELATES” (Balchem Corporation, priority 2020, published 2021):
Peptide text beside a SMILES is read from it.

What was measured:
[1] = Stability of Mg(G3) in solution via 1H NMR; assay type: physicochemical; settings: 1H NMR in D2O; periods up to 72 hrs
Text: At 72 hrs, an observable upfield shift occurs, which may be due to isomer formation. There is no observable change in proton integration. NMR taken in D2O.

Caco-2 cells = assay: Cellular uptake in Caco-2 cells, BioVision colorimetric magnesium uptake assay kit; assay type: in vitro ADME; settings: compared with other magnesium complexes
Text: 18 MΩ Ultrapure water was obtained in-house.

Molecule	stability in solution [1]	cellular uptake in CaCo-2 cell line (FIG. 72) (Caco-2 cells)
NCC(=O)NCC(=O)NCC(=O)[O-].[Mg+2].[OH-] [Mg(G3), magnesium 2-[[2-[(2-aminoacetyl)amino]acetyl]amino]acetic acid chelate] (H-Gly-Gly-Gly-OH)	considerable stability	
NCC(=O)[O-].NCC(=O)[O-].[Mg+2] [MgBG, magnesium bisglycinate, reference compound]		significantly less cellular uptake than Mg(G3)
magnesium diglycine [MgG2]		relatively linear uptake
